The test system of data set [1] is BLT2 mRNA. Put plainly: BLT2 mRNA in Rat2-BLT2 stable cells (RT-PCR). It is filed as cell-based. As to conditions: transient transfection, 24 h. The procedure: Suppressed BLT2 expression level was determined by RT-PCR. Rat2-BI_T2 stable cells were plated at a density of 5×10^4 cells/plate on 6 well plates. After 24 hr, cells were transiently transfected with BLT2 specific antisense and sense oligonucleotide plasmid with Lipofectamin reagent and then incubated in fresh DMEM supplemented with 10% FBS for an additional 24 h. After additional incubation, the transfected cells were harvested for BLT2 transcripts analysis. Total RNA was reverse-transcribed and PCR amplify were performed with BLT2 forward primer: 5′-[…]-3′ (SEQ ID NO: 23) and reverse primer: 5′-[…]-3′ (SEQ ID NO: 24). Non-transfected Rat2-BLT2 stable cells cDNA was used the negative control and GAPDH was shown as internal control.

The subject of data set [2] is Rac. Put plainly: Endogenous Rac expression in lung tissue (Western blot). The conditions noted are these: oligonucleotides injected into tail veins, mice sacrificed after 12 hr. The data set is classed as in vivo, mouse. The text has this: FIGS. 10a and 10b show activation of Rac in the lung tissue by OVA provocation and inhibition of endogenous Rac expression by antisense Rac oligonucleotide treatment. Lung samples were homogenized with micropestle and washed with PBS twice. FIG. 10a depicts Western blot analysis of Rac expression in mouse model of asthma. For membrane protein preparation, cells were suspended in Buffer A and cells were ruptured by passing through 21-G syringe. After ultracentrifugation, protein samples in pelleted membrane fraction were dissolved with buffer A containing 1% Triton X-100. FIG. 10b depicts Western blot analysis of Rac expression in mouse model of asthma administered with asRac. For whole cell lysate preparation, cells from the lung tissues of buffer, control Rac oligonucleotide or antisense Rac oligonucleotide injected mice were suspended with lysis buffer and incubated for 20 min. After centrifugation of the samples, protein quantification was carried out using Bradford reagent and Western blot analysis was performed.
Oligonucleotides, from Genotech Co. (Korea), were synthesized with a phosphorothioate backbone to improve the resistance to endonuclease. The antisense oligonucleotide consisted of 17 nucleotides analogues to the 5′ end of the murine Rac mRNA sequence, which spans the translation initiation site. […]

For data set [3], the system named is ROS. Put plainly: ROS levels in BAL fluid cells (DCF fluorescence, FACS). The data set is classed as in vivo, mouse. The conditions noted are these: 1.6 mg/kg i.v. 24 hr and 1 hr before 10% OVA; BAL fluid 48 h after challenge. The procedure:
(§1) Female BALB/c mice and C57BL/6 mice (7 weeks old; 18-20 g) were obtained from Orientbion Inc. (Seoungnam, Korea). Sensitization and challenge were carried out as described previously with some modification (28). Briefly, female C57BL/6 mice (7 weeks old; 18-20 g) were immunized by intraperitoneal (i.p.) injection of 200 μg ovalbumin (OVA) emulsified in 2.5 mg of adjuvant aluminum hydroperoxide gel (alum) (Pierce, Rockford, Ill.). A second i.p. injection of 20 μg OVA adsorbed onto alum (2.5 mg) was administered 10 days later. After an additional 10 days, mice were exposed to an aerosol of 1% OVA in saline for 30 min daily on 3 consecutive days. On day 25, mice were finally challenged by provocation with 10% OVA aerosol. For inhibition experiments, sense or antisense BLT2 (1.6 mg/kg) was injected intravenously 24 h and then 1 h before the 10% OVA challenge. The mice were then killed on day 27 to assess asthmatic phenotypes. Antisense BLT2 oligonucleotide (5′-[…]-3′ (SEQ ID NO: 15)), sense BLT2 oligonucleotide (5′-[…]-3′ (SEQ ID NO: 16)).
ROS levels in BAL fluids were measured as a function of DCF fluorescence as described previously (30). […] DCF fluorescence was excited at 488 nm and the evoked emission was filtered with a 515-nm long-pass filter. […]

Data set [4] has as its system OVA-challenged mice. As to the kind of experiment: Eosinophil infiltration in BAL fluid of OVA-challenged mice. The data set is classed as in vivo, mouse. The conditions noted are these: C57BL/6 mice, 1.6 mg/kg i.v. 24 hr and 1 hr before 10% OVA challenge, 48 hr. The protocol:
as §1
Inflammatory cells in the BAL fluid were collected by centrifugation (1,000 g for 3 min) and washed once in PBS. Cells were counted using a hemocytometer, and viability was assessed by trypan blue exclusion. […]

In the case of “BLT2 antisense oligonucleotide: BLT2 specific antisense oligonucleotide plasmid transfected into Rat2-BLT2 stable cells (antisense CAGCAGTGTCTCGTT; listed as DNA, chemistry not given here)”, the “level of BLT2 mRNA by RT-PCR” value in data set [1] is “reduced”.
In the case of “control Rac: control oligonucleotide of same nucleotide composition, 5′-GATCAGTGCACACAGTG-3′ (SEQ ID NO: 21) (listed as DNA, chemistry not given here) [reference compound]”, the “endogenous expression of Rac in the lung tissues” value in data set [2] was “didn't show significant effect”.
“sense BLT2: sense BLT2 oligonucleotide 5′-GGAATGAGACACTACTGAGC-3′ (SEQ ID NO: 16) (listed as DNA, chemistry not given here) [reference compound]”: in data set [3], the “effect on ROS levels in BAL fluid (in words)” value was “not”. Besides, the “effect on eosinophil infiltration in BAL fluids (in words)” value in data set [4] was “no inhibitory effect”.
